Assay results as given in PubChem BioAssay AID328 (DTP/NCI, 2004).
Where “and” joins values, the source holds several entries; their conditions need not be identical. Equal entries are not always repeated. Toxic doses and inconclusive results are not listed. The calls were made as follows: active = survival T/C of 150% or more; inactive = T/C below 125% in these data.

Tested on: BDF1 mice, P388 leukemia ip, median survival T/C
Assay: NCI In Vivo Anticancer Drug Screen. Data for tumor model P388 Leukemia (intraperitoneal) in B6D2F1 (BDF1) mice
Conditions: endpoint: median survival time, higher = longer survival
Method in brief: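 Antitumour effect was judged in vivo: survival in drug-treated mice, normalised to that of vehicle-dosed controls, gives the reported T/C.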

[1] = dose: 100.0 mg/kg/injection, schedule: Q01DX009 (ip), vehicle: saline with Tween-80
[2] = dose: 200.0 mg/kg/injection, schedule: Q01DX009 (ip), vehicle: saline with Tween-80
[3] = dose: 50.0 mg/kg/injection, schedule: Q01DX009 (ip), vehicle: saline with Tween-80
[4] = dose: 100.0 mg/kg/injection, schedule: Q01DX001 (ip), vehicle: saline sonified
[5] = dose: 200.0 mg/kg/injection, schedule: Q01DX001 (ip), vehicle: saline sonified
[6] = dose: 25.0 mg/kg/injection, schedule: Q04DX003 (ip), vehicle: Klucel (hydroxypropylcellulose) (HPC)
[7] = dose: 25.0 mg/kg/injection, schedule: Q01DX009 (ip), vehicle: saline with Tween-80
[8] = dose: 100.0 mg/kg/injection, schedule: Q01DX009 (ip), vehicle: Klucel (hydroxypropylcellulose) (HPC)
[9] = dose: 200.0 mg/kg/injection, schedule: Q01DX009 (ip), vehicle: Klucel (hydroxypropylcellulose) (HPC)
[10] = dose: 100.0 mg/kg/injection, schedule: Q04DX003 (ip), vehicle: Klucel (hydroxypropylcellulose) (HPC)
[11] = dose: 100.0 mg/kg/injection, schedule: Q04DX003 (ip), vehicle: saline with Tween-80
[12] = dose: 200.0 mg/kg/injection, schedule: Q04DX003 (ip), vehicle: saline with Tween-80

Measured: T/C

COC[C@H]1OC(=O)c2coc3c2[C@@]1(C)C1=C(C3=O)[C@@H]2CCC(=O)[C@@]2(C)C[C@H]1OC(C)=O
inactive: dose: 0.16 mg/kg/injection, schedule: Q01DX009 (ip), vehicle: saline 108 % of control | dose: 0.31 mg/kg/injection, schedule: Q01DX009 (ip), vehicle: saline 115 % of control | dose: 0.63 mg/kg/injection, schedule: Q01DX009 (ip), vehicle: saline 116 % of control | dose: 2.5 mg/kg/injection, schedule: Q01DX009 (ip), vehicle: saline 117 % of control

CNC(=O)Oc1ccc2ccccc2c1
inactive: [1] 111 % of control | [2] 113 % of control | dose: 400.0 mg/kg/injection, schedule: Q01DX009 (ip), vehicle: saline with Tween-80 103 % of control

N=c1scc(CC(=O)O)n1N
inactive: dose: 50.0 mg/kg/injection, schedule: Q01DX009 (ip), vehicle: saline 92 % of control | dose: 100.0 mg/kg/injection, schedule: Q01DX009 (ip), vehicle: saline 108 % of control | dose: 200.0 mg/kg/injection, schedule: Q01DX009 (ip), vehicle: saline 92 % of control

CC(C)=CCO
inactive: dose: 100.0 mg/kg/injection, schedule: Q04DX003 (ip), vehicle: saline 100 % of control | dose: 200.0 mg/kg/injection, schedule: Q04DX003 (ip), vehicle: saline 104 % of control | dose: 400.0 mg/kg/injection, schedule: Q04DX003 (ip), vehicle: saline 104 % of control

c1c2c(cc3c1OC1=C(CCCCCCCCCC1)C3)OC1=C(CCCCCCCCCC1)C2
inactive: [3] 102 % of control | [1] 100 % of control | [2] 86 % of control

Oc1ccccc1C=NC1CCCCC1.Oc1ccccc1C=NC1CCCCC1.[Co+2]
inactive: dose: 50.0 mg/kg/injection, schedule: Q01DX001 (ip), vehicle: saline sonified 90 % of control | [4] 109 % of control | [5] 109 % of control

O=C(/C=C/c1ccc(OCc2ccccc2)cc1)c1cccc(Br)c1
inactive: [3] 89 % of control | [1] 100 % of control | [2] 91 % of control

COc1c(O)ccc2c1c[n+](C)c1c3cc4c(cc3ccc21)OCO4
inactive: dose: 4.0 mg/kg/injection, schedule: Q01DX009 (ip), vehicle: saline 113 % of control | dose: 8.0 mg/kg/injection, schedule: Q01DX009 (ip), vehicle: saline 113 % of control | dose: 16.0 mg/kg/injection, schedule: Q01DX009 (ip), vehicle: saline 106 % of control

CC(=O)OC1CC(OC2C(O)CC(OC3C(O)CC(OC4CCC5(C)C(CCC6C5CCC5(C)C(C7=CC(=O)OC7)C(O)CC65O)C4)OC3C)OC2C)OC(C)C1OC1OC(CO)C(O)C(O)C1O (stereo not drawn)
inactive: dose: 12.5 mg/kg/injection, schedule: Q01DX010 (ip), vehicle: carboxymethylcellulose (CMC) 109 % of control | dose: 12.5 mg/kg/injection, schedule: Q04DX003 (ip), vehicle: Klucel (hydroxypropylcellulose) (HPC) 110 % of control | dose: 25.0 mg/kg/injection, schedule: Q01DX010 (ip), vehicle: carboxymethylcellulose (CMC) 95 % of control | [6] 120 % of control

CN(C)N=Nc1ccc(-c2ccccc2)cc1
inactive: [7] 99 % of control

[Cl][Co]([Cl])[Cl].[NH-]CC[N-]CC[NH-]
inactive: [3] 109 % of control | [1] 109 % of control

Nc1nc(SCc2ccccn2)c2[nH]cnc2n1
inactive: dose: 20.0 mg/kg/injection, schedule: Q04DX003 (ip), vehicle: Klucel (hydroxypropylcellulose) (HPC) 104 % of control | dose: 30.0 mg/kg/injection, schedule: Q04DX003 (ip), vehicle: Klucel (hydroxypropylcellulose) (HPC) 104 % of control | dose: 44.0 mg/kg/injection, schedule: Q04DX003 (ip), vehicle: Klucel (hydroxypropylcellulose) (HPC) 104 % of control | [8] 107 % of control | [9] 92 % of control

COc1cccc(C(=O)O)c1OS(=O)(=O)c1ccccc1
inactive: [8] 104 % of control | [10] 110 % of control | [9] 95 % of control | dose: 200.0 mg/kg/injection, schedule: Q04DX003 (ip), vehicle: Klucel (hydroxypropylcellulose) (HPC) 90 % of control | dose: 400.0 mg/kg/injection, schedule: Q01DX009 (ip), vehicle: Klucel (hydroxypropylcellulose) (HPC) 90 % of control | dose: 400.0 mg/kg/injection, schedule: Q04DX003 (ip), vehicle: Klucel (hydroxypropylcellulose) (HPC) 105 % of control

COc1ccc(C(C)c2ccccc2)cc1 (stereo not drawn)
inactive: [11] 110 % of control | [12] 105 % of control | dose: 400.0 mg/kg/injection, schedule: Q04DX003 (ip), vehicle: saline with Tween-80 100 % of control

CC1=C(Br)C(=O)C(Br)=C(Br)C1=O
inactive: [6] 104 % of control | dose: 35.0 mg/kg/injection, schedule: Q01DX009 (ip), vehicle: Klucel (hydroxypropylcellulose) (HPC) 109 % of control | dose: 37.5 mg/kg/injection, schedule: Q01DX001 (ip), vehicle: Klucel (hydroxypropylcellulose) (HPC) 95 % of control | dose: 50.0 mg/kg/injection, schedule: Q04DX003 (ip), vehicle: Klucel (hydroxypropylcellulose) (HPC) 100 % of control | dose: 55.0 mg/kg/injection, schedule: Q01DX009 (ip), vehicle: Klucel (hydroxypropylcellulose) (HPC) 90 % of control | dose: 75.0 mg/kg/injection, schedule: Q01DX001 (ip), vehicle: Klucel (hydroxypropylcellulose) (HPC) 109 % of control | [10] 90 % of control | dose: 150.0 mg/kg/injection, schedule: Q01DX001 (ip), vehicle: Klucel (hydroxypropylcellulose) (HPC) 100 % of control

CCC(CC)OCCN1CCN(CCCN2c3ccccc3Sc3ccc(C(F)(F)F)cc32)CC1
inactive: dose: 5.0 mg/kg/injection, schedule: Q04DX003 (ip), vehicle: saline with Tween-80 103 % of control and 104 % of control | dose: 10.0 mg/kg/injection, schedule: Q04DX003 (ip), vehicle: saline with Tween-80 108 % of control and 116 % of control | dose: 20.0 mg/kg/injection, schedule: Q04DX003 (ip), vehicle: saline with Tween-80 122 % of control

OCC1CSC2(CCCCC2)N1 (stereo not drawn)
inactive: [3] 105 % of control | [1] 105 % of control | [2] 93 % of control

O=C(CN1C(=O)c2ccccc2C1=O)c1ccc(C(F)(F)F)cc1
inactive: dose: 50.0 mg/kg/injection, schedule: Q01DX001 (ip), vehicle: Klucel (hydroxypropylcellulose) (HPC) 96 % of control | dose: 100.0 mg/kg/injection, schedule: Q01DX001 (ip), vehicle: Klucel (hydroxypropylcellulose) (HPC) 105 % of control | dose: 200.0 mg/kg/injection, schedule: Q01DX001 (ip), vehicle: Klucel (hydroxypropylcellulose) (HPC) 88 % of control

O=C(O)C(=O)c1ccc(-c2ccccc2)cc1
inactive: [7] 90 % of control | [3] 100 % of control | [1] 113 % of control | dose: 150.0 mg/kg/injection, schedule: Q01DX009 (ip), vehicle: saline with Tween-80 110 % of control

CS(=O)(=O)OC[C@H](OS(=O)(=O)O)[C@H](COS(C)(=O)=O)OS(=O)(=O)O
inactive: dose: 50.0 mg/kg/injection, schedule: Q04DX003 (ip), vehicle: saline with Tween-80 110 % of control | [11] 110 % of control | [12] 110 % of control

Cc1ccc(S(=O)(=O)N(C)c2ccccc2C(=O)O)cc1
inactive: [4] 100 % of control | [5] 95 % of control | dose: 400.0 mg/kg/injection, schedule: Q01DX001 (ip), vehicle: saline sonified 100 % of control
